Here are results for 7 compounds from PMC10388299, “Design, Synthesis, and Biological Evaluation of 2-Hydroxy-4-phenylthiophene-3-carbonitrile as PD-L1 Antagonist and Its Comparison to Available Small Molecular PD-L1 Inhibitors” (Journal of Medicinal Chemistry, 2023).

The target of data set [1] is T1, PD-1/PD-L1 complex (Homo sapiens, UniProt Q9NZQ7).
T1 construct: purchased Cisbio Bioassays
Put plainly: HTRF PD-1/PD-L1 assay (Cisbio Human PD1/PD-L1 biochemical binding assay). The following applies: disruption of the PD-1/PD-L1 complex; two independent dilution series. In general terms: TR-FRET usually uses a lanthanide donor and a delayed reading to cut background.
Experimental: Presence of inhibitors (small molecules, proteins, and so forth) that disrupt the binding decreases the resulting signal allowing the assessment of the inhibitory activity of tested inhibitors via IC50 (the half maximal inhibitory concentration).
The HTRF assay was performed using the certified Cis-Bio assay kit at 20 μL final volume using their standard protocol as described by Musielak et al.[34] Measurements were performed on individual dilution series to determine the half maximal inhibitory concentration (IC50) of tested compounds. After mixing all components according to the Cis-Bio protocol, the plate was incubated for 2 h at RT. […] For the compounds with IC50 values that were too high due to, e.g., solubility issues, a “dissociation value” at the concentration of 50 μM is presented for the sake of comparability to other inhibitors.

Data set [2] can be described thus: In vitro stability in human serum. The data set is classed as in vitro ADME. The following applies: for stability in serum (4h): supplementary csv, unit not given; for stability in serum after 4 h: radiochemical purity by TLC, triplicate. The procedure: (§1) In vitro stability of [^18F]4a and [^18F]9a was evaluated in Tween-80 or PBS (original diluent) and serum. After purification, samples of tracers were mixed with equal volumes of the formulated tracer and solution in which stability was evaluated (100 μL tracer solution with 100 μL Tween-80/PBS) and measured every 30 min for a 4 h period. The radiochemical purity (RCP) of labeled products was measured using thin-layer chromatography (TLC) (silica TLC plates on aluminum, MerckMilipore, USA). The TLCs were developed with appropriate MeOH/DCM eluent system; 10% MeOH/DCM + NH3 for [^18F]4a and 10% MeOH/DCM for [^18F]9a. The distribution of the radioactivity among the TLC plate was measured on GE Amersham Typhoon Scanner using phosphorus plates and ImageQuant TL 1D software for data processing (both GE Healthcare Life Science, USA). The experiment was performed in triplicate.

Data set [3] in a line: Experimental lipophilicity of 18F tracers. The class given is physicochemical. The following applies: for logP / lipophilicity (in words): 18F tracer; for logP / logD: triplicate; for logP: read-out: experimental log P; for logD: pH 7.4, 18F tracer, read-out: experimental log D7.4.
The target in data set [4] is T2, PD-L1 (Homo sapiens, UniProt Q9NZQ7).
T2 construct: The PD-L1 protein (18–134) was expressed in the Escherichia coli BL21 (DE3); made in house; host or cells: Escherichia coli BL21 (DE3)
T2 sequence (Q9NZQ7 18-134): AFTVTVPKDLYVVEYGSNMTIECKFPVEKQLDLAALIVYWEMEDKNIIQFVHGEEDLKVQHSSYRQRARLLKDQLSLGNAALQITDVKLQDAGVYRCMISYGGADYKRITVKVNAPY
Put plainly: Microscale thermophoresis (MST) affinity assay. The data set is classed as binding. The method, then: The PD-L1 protein (18–134) was expressed in the Escherichia coli BL21 (DE3) and purified as described previously (Zak et al., 2016).[8] Protein expression was induced with 1 mM isopropyl β-D-1-thiogalactopyranosid (IPTG) at OD600 of 0.8 and the cells were cultured overnight at 37 °C. Afterward protein was refolded by drop-wise dilution into solution containing 0.1 M Tris pH 8.0, 1 M L-arginine hydrochloride, 0.25 mM oxidized glutathione, and 0.25 mM reduced glutathione. After refolding, protein was dialyzed 3 times against buffer containing 10 mM Tris pH 8.0 and 20 mM NaCl. Finally, PD-L1 was purified by SEC (size-exclusion chromatography) on HiLoad 26/600 Superdex 75 column (GE Healthcare) equilibrated with PBS pH 7.4.
PD-L1 was expressed as for NMR experiment. It was diluted to 10 μM and labelled with Protein Labeling Kit RED-NHS 2nd Generation from Nanotemper according to the manufacturer’s guidelines. The degree of labelling for PD-L1 was 0.74, which is with agreement with the protocol. Labelled PD-L1 at 100 nM concentration was then mixed with independent series of 4a and 9a compound dilution series (n = 4) and incubated for 30 min at RT. Next, samples were transferred to dedicated 384-well plate and measured on Diantus equipped with pico detector using auto-excitation and 5 s pulse (Nanotemper) for the affinity measurements. The results were exported, averaged, and fitted in Mathematica 12 using following equations: [drawing 1] where: FB—fraction bound, [A]—concentration of unlabeled titrated partner, [B]—concentration of fluorescent labeled partner that is fixed, [AB]—concentration of bound complex of A and B, Kd—equilibrium dissociation constant.
On the technique in general: In MST a laser heats a spot of the sample, and binding alters the fluorescence response.

The target in data set [5] is T3, PD-1/PD-L1 (Homo sapiens, UniProt Q9NZQ7).
T3 construct: host or cells: CHO-K1 aAPCs (PD-L1) and Jurkat effector cells (PD-1)
T3 sequence (Q9NZQ7 19-290): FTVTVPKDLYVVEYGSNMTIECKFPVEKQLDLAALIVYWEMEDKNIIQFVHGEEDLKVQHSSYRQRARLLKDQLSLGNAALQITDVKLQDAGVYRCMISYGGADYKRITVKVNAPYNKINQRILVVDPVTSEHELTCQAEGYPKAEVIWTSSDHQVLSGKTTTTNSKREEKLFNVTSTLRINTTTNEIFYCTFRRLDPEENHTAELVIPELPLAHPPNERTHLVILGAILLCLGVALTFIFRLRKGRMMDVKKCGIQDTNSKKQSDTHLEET
As to the kind of experiment: Promega PD-1/PD-L1 immune checkpoint blockade assay (Jurkat reporter T cells + aAPCs). The class given is cell-based. The following applies: Jurkat reporter T cells cocultured with aAPCs; an estimation because of cytotoxicity at higher concentrations.
Experimental: Additionally, aAPCs and ECs were propagated in a constant presence of hygromycin B (50 μg/mL) and G418 (250 μg/mL) to provide a stable expression of the introduced genetic constructs.
The aAPCs were seeded in white flat bottom 96-well plates at the density of 10 000 cells/well in the culture medium 24 h before the assay and grown overnight in a 5% CO2 37 °C incubator. On the day of the experiment, serial dilutions of tested compounds were prepared first in DMSO and then formulated in RPMI 1640-containing 1% FBS to keep the constant DMSO concentration of 0.1% (v/v). As a negative control, DMSO was used in assay buffer at the concentration of 0.1% (v/v). As a positive control, a serial dilution of durvalumab (an anti-PD-L1 antibody) in assay buffer was used. Meanwhile, the medium of the aAPCs cells was removed, and the compounds’ dilutions were added to the plate (40 μL/well). […] The cell suspension was distributed over the inner 60 wells of the assay plate (20 000 cells/well, 40 μL). The plates were incubated for 6 h in a 5% CO2 incubator at 37 °C. Once the assay time was over, the plate was taken out of the incubator to equilibrate to room temperature. Before measurements, a 75 μL per well of Bio-Glo luciferase substrate was added to the inner 60 wells of the plate. […] The measurement was done on a Spark microplate reader (Tecan), using the standard settings for luminescence reading.

Data set [6] in a line: In vitro stability in formulation solution. The class given is physicochemical. As to conditions: for stability in formulation solution (4h): supplementary csv, unit not given; for stability in formulation solution after 4 h: radiochemical purity by TLC, triplicate. The procedure:
as §1

The target in data set [7] is T2, PD-L1. As to the kind of experiment: NMR binding assay (1H and 1H-15N HMQC). The following applies: molar ratio 1:1. An excerpt:
To investigate if our synthesized analogs are capable of disrupting PD-1/PD-L1 binding, we performed our previously described nuclear magnetic resonance (NMR) assay.[16] […] The PD-L1 dimerization causes peaks of the ^1H aliphatic part PD-L1 spectrum to flatten (peak at −0.4 ppm) or disappear in the case of peaks from ^1H–^15N HMQC spectrum. Dimerization of PD-L1, in turn, prevents its binding to the PD-1.
For NMR measurements, the buffer was exchanged by gel filtration to PBS pH 7.4. 10% (v/v) of D2O was added to the samples to provide the lock signal. All spectra were recorded at 300 K using a Bruker Avance III 600 MHz spectrometer equipped with the nitrogen cryo-probe head.
Determination of binding of compounds to PD-L1 was carried out with the ^1H NMR. […] The molecular weight of each complex was estimated from relaxation time analysis, which can only be explained by the compound-induced PD-L1 dimerization. No significant changes were observed upon the addition of the PD-1 with the tested compounds.

Data set [8] deals with murine PD-L1. Further details: method as in PMID 17985865. The following applies: by means of NMR, HTRF, and cellular assays; cited from earlier work.
Data set [9] addresses T2, PD-L1. Also on record: method as in PMID 17985865. The following applies: by means of NMR, HTRF, and cellular assays; cited from earlier work.
Data set [10] has as its system H358 (lung adenocarcinoma) PD-L1^+/– tumor tissue sections. Put plainly: Autoradiography with H358 PD-L1+/- tumor tissue sections. The data set is classed as binding, human. As to conditions: PD-L1+ vs counterpart H358 tumor sections. The procedure: (§2) Formalin-fixed paraffin-embedded xenograft tumors (ES2 PD-L1^+/– and H358 PD-L1^+/–) were cut into 4 μm slices and placed on the glass slides. Before each immunohistochemistry and autoradiography experiment, tissue slides were deparaffinized by oven incubation (min 1 h at 60 °C) and xylene washes, then rehydrated through graded alcohol and distilled water. Additionally, heat-induced antigen retrieval with 10 mM citrate buffer pH = 6.0 was performed (15 min 400 W). Snap-frozen human tonsil tissue was a gift from the Pathology Department (UMCG). Before each experiment, they were incubated in cold acetone for 10 min.
(§3) For autoradiography, antigen retrieval and acetone wash were followed by 30 min of incubation with a freshly formulated tracer at a concentration of 0.2 MBq/mL. After washing twice with cold PBS and once with water, slides were left to dry and exposed to phosphorus plates. The image was recorded on GE Amersham Typhoon Biomolecular Imager and analyzed with ImageQuant TL 1D software (both GE Healthcare Life Science, USA).

Data set [11] has as its target PD-L1. As to conditions: PD-L1 nanobody, ca. 15 kDa; cited from earlier work.
The test system of data set [12] is ES2 (ovarian carcinoma) PD-L1^+/– tumor tissue sections. As to the kind of experiment: Autoradiography with ES2 PD-L1+/- tumor tissue sections. The class given is binding, human. The procedure: as §2, §3
Where [13] appears, read: MST, labelled PD-L1 100 nM, n = 4, read-out: kD to hPD-L1.
[14] abbreviates: supplementary csv, unit inferred, read-out: MST Kd.

“Also recorded” adds a separate entry of the source. Counter-ions that a name gives are not always drawn. Like-named read-outs stand apart in the source and are kept apart here.

T1 sequence (Q9NZQ7 19-238 limits assumed, one chain of several): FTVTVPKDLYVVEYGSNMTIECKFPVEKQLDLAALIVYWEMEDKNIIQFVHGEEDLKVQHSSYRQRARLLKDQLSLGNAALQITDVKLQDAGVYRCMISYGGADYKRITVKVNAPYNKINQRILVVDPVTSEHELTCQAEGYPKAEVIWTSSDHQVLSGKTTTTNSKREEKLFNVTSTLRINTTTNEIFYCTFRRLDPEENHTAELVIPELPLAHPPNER

For `Cc1c(COc2cc(OCc3cccc(C#N)c3)c(CN3C[C@@H](F)C[C@@H]3C(=O)O)cc2Cl)cccc1-c1ccc2c(c1)OCCO2` [9a, (2R,4S)-1-(5-Chloro-2-((3-cyanobenzyl)oxy)-4-((3-(2,3-dihydrobenzo[b][1,4]dioxin-6-yl)-2-methylbenzyl)oxy)benzyl)-4-fluoropyrrolidine-2-carboxylic Acid], the IC50 (commonly the concentration at which inhibition is half-maximal) in data set [1] turned out to be 2.01 nM. In addition, in data set [2], the “stability in serum (4h)” value was 88.7. In addition, in [3], the logP came out at 5.2 and the logD turned out to be 6.5. Further, in [4] (setting [13]), the Kd (commonly the free concentration of one partner at which half of the binding sites on the other are occupied at equilibrium, for simple one-to-one binding) was roughly 8 nM. In addition, the Kd in data set [4] (setting [14]) is 8.36 nM. Also, the EC50 (as a rule, the midpoint of the concentration-response curve) in data set [5] was 880 nM. Besides, in data set [6], the “stability in formulation solution (4h)” value was found to be 97.3.

For the compound `N#Cc1c(-c2ccc(F)cc2)csc1OCc1ccc(CN)cc1` [4a, 2-((4-(Aminomethyl)benzyl)oxy)-4-(4-fluorophenyl)thiophene-3-carbonitrile Hydrochloride], the “effect on PD-L1 in 1H NMR and 1H-15N HMQC spectra” value in data set [7] is given as “induces dimerization of PD-L1”. The IC50 in data set [1] turned out to be 4.97 nM. The “stability in serum (4h)” value in data set [2] was found to be 93.9. In addition, in [3], the logP is 3.6 and the logD was 3.9. The Kd in data set [4] (setting [13]) was roughly 27 nM. In data set [4] (setting [14]), the Kd came out at 26.9 nM. For the same compound, the EC50 in data set [5] was 2700 nM. For the same compound, in [6], the “stability in formulation solution (4h)” value is 97.5.

Turning to `C[C@@H](O)[C@H](NC(=O)N[C@@H](CC(N)=O)c1nc([C@@H](N)CO)no1)C(=O)O` [CA-170], the “direct binding to murine PD-L1” value in [8] is reported as “not a direct binder”. In data set [9], the “direct binding to human PD-L1” value is “not a direct binder”.

Consider `Cc1c(COc2cc(OCc3cccc(C#N)c3)c(CN3C[C@@H]([18F])C[C@@H]3C(=O)O)cc2Cl)cccc1-c1ccc2c(c1)OCCO2` [[^18F]9a], for which, in [2], the “stability in serum after 4 h” value is listed as 88.7 ± 5.7% and the “stability in human serum, minimal value” stood at 82%. In data set [3], the “lipophilicity (in words)” value was “high lipophilicity”, the logP came to 5.2 ± 0.6 and the logD was 6.5 ± 0.2. In addition, the “higher uptake in PD-L1+ H358 tumors” value in data set [10] was 40–55%. Besides, the “stability in formulation solution after 4 h” value in data set [6] is 97.3 ± 1.1%.

As to KN035: PD-L1 nanobody, ca. 15 kDa, the pKd (as a rule, the Kd on a negative log10 scale, so that one unit is a factor of ten) in [11] was 8.5.

In the case of `Cc1c(COc2cc(OCc3cccc(C#N)c3)c(CN3CC(O)C[C@@H]3C(=O)O)cc2Cl)cccc1-c1ccc2c(c1)OCCO2` (stereo in doubt) [9b, (2R,4S)-1-(5-Chloro-2-((3-cyanobenzyl)oxy)-4-((3-(2,3-dihydrobenzo[b][1,4]dioxin-6-yl)-2-methylbenzyl)oxy)benzyl)-4-hydroxypyrrolidine-2-carboxylic Acid, reference compound], the “effect on PD-L1 in 1H NMR and 1H-15N HMQC spectra” value in data set [7] is listed as “induces dimerization of PD-L1”.

As for `N#Cc1c(-c2ccc([18F])cc2)csc1OCc1ccc(CN)cc1` [[^18F]4a], the background uptake result in data set [12] (compared with [^18F]9a) was “lower background uptake than [^18F]9a”. Further, the “discrimination between wild-type and knock-out ES2 slides” value in data set [12] (paraffin-embedded sections) is “failed to discriminate between wild-type and knock-out; also recorded: unable to bind specifically”. For the same compound, in data set [2], the “stability in serum after 4 h” value was 93.9 ± 0.5% and the “stability in human serum, minimal value” was 93%. Besides, in data set [3], the “lipophilicity (in words)” value is “moderate lipophilicity”, the logP worked out at 3.6 ± 0.4 and the logD is 3.9 ± 0.9. Also, in [10], the “higher uptake in PD-L1+ H358 tumors” value is 40–55%. Moreover, in data set [6], the “stability in formulation solution after 4 h” value is recorded as 97.5 ± 0.5%.
